Source: PubChem BioAssay (NCI)
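In this assay, cells in 96-well plates receive the compound at five concentrations for 48 hours. Endpoints are linearly interpolated between the surrounding concentrations. At the GI50, growth is halved. TGI: total growth inhibition.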

What was measured:
Assay in all cases: NCI anticancer screen, dose series, 48 h
A498 renal = test system: A498 renal
HCC-2998 colon = test system: HCC-2998 colon
HL-60(TB) leukemia = test system: HL-60(TB) leukemia
HOP-92 NSCLC = test system: HOP-92 NSCLC
HS 578T breast = test system: HS 578T breast
NCI-H460 lung = test system: NCI-H460 lung
PC-3 prostate = test system: PC-3 prostate
RPMI-8226 leukemia = test system: RPMI-8226 leukemia
SK-MEL-2 melanoma = test system: SK-MEL-2 melanoma
UACC-62 melanoma = test system: UACC-62 melanoma

| SMILES | GI50 (A498 renal) | TGI (A498 renal) | GI50 (HCC-2998 colon) | TGI (HCC-2998 colon) | GI50 (HL-60(TB) leukemia) | TGI (HL-60(TB) leukemia) | GI50 (HOP-92 NSCLC) | TGI (HOP-92 NSCLC) | GI50 (HS 578T breast) | TGI (HS 578T breast) | GI50 (NCI-H460 lung) | TGI (NCI-H460 lung) | GI50 (PC-3 prostate) | TGI (PC-3 prostate) | GI50 (RPMI-8226 leukemia) | TGI (RPMI-8226 leukemia) | GI50 (SK-MEL-2 melanoma) | TGI (SK-MEL-2 melanoma) | GI50 (UACC-62 melanoma) | TGI (UACC-62 melanoma) |
| --- | --- | --- | --- | --- | --- | --- | --- | --- | --- | --- | --- | --- | --- | --- | --- | --- | --- | --- | --- | --- |
| N#CC1C(=O)NC(c2ccccc2[N+](=O)[O-])c2sc3c(F)cccc3c21 (stereo not given) | 0.561 µM | 2.06 µM | 10.1 µM | 32.7 µM | 14.2 µM | 54.3 µM | 11.3 µM | 47.3 µM | 15.2 µM | 69.9 µM | 0.28 µM | 4.58 µM | 12.4 µM | 73 µM | 5.67 µM | > 60.3 µM | 9.03 µM | 49.8 µM | 0.341 µM | 4.27 µM |
| COc1ccc2c(c1)C(=O)c1c-2c(Nc2cccc(C(C)=O)c2)nc2ccccc12 | 3.09 µM | 15 µM | 16.1 µM | 91.4 µM | > 100 µM | > 100 µM | 11.1 µM | 27.7 µM | 3.19 µM | 15.5 µM | 23.5 µM | > 100 µM | 14.3 µM | 32.5 µM | 17.5 µM | 70.7 µM | 16.4 µM | 53.5 µM | 11.6 µM | 27.7 µM |
| CN(C)CCNC(=O)NC[C@H]1CC[C@@H]2[C@H](O1)c1cc(C(F)(F)F)ccc1N[C@H]2c1ccccc1 | 0.196 µM | 10.5 µM | 0.275 µM | 18.6 µM | 0.154 µM | 0.672 µM | 1.25 µM | 29 µM | 0.173 µM | 18.1 µM | 0.14 µM | 11.8 µM | 0.265 µM | 27 µM | 0.163 µM | 8.48 µM | 0.15 µM | 2.32 µM | 0.276 µM | 15.9 µM |
| C=C1C(=O)O[C@H]2[C@H]1CC/C(COC(=O)NCCCCCCCCNC(=O)OC/C1=C/CC[C@@]3(C)O[C@H]3[C@H]3OC(=O)C(=C)[C@@H]3CC1)=C\CC[C@@]1(C)O[C@@H]21 | 1.69 µM | 3.14 µM | 1.2 µM | 2.52 µM | 0.268 µM | 0.869 µM | 0.177 µM | 0.551 µM | 1.17 µM | 8.23 µM | 1.75 µM | 3.98 µM | 0.385 µM | 1.63 µM | 0.25 µM | 0.745 µM | 0.601 µM | 2.8 µM | 0.197 µM | 0.488 µM |
| CN1CCN(Cc2ccc(NC(=O)c3cncc(C#Cc4cnc(N)c5cnccc45)c3)cc2C(F)(F)F)CC1 | 0.12 µM | 0.363 µM | 0.234 µM | 7.12 µM | 0.0926 µM | 0.585 µM | 0.0725 µM | 0.287 µM | 0.122 µM | 0.7 µM | 0.218 µM | 3.31 µM | 0.284 µM | 8.97 µM | 0.216 µM | 3.25 µM | 0.108 µM | 0.283 µM | 0.0782 µM | 0.282 µM |
| CCCN1CCC(c2ccc(Nc3nc(Nc4cc(F)ccc4C(N)=O)c4cc[nH]c4n3)c(OC)c2)CC1 | 1.17 µM | 5.07 µM | 2.53 µM | 5.5 µM | 0.0565 µM | 5.81 µM | 0.00586 µM | 0.126 µM | 3.84 µM | 12.3 µM | 0.147 µM | 1.43 µM | 2.69 µM | 9.53 µM | 3.68 µM | 12.1 µM | 1.86 µM | 5.78 µM | 3.58 µM | 7.44 µM |
| O=[N+]([O-])c1ccc(Sc2ccncn2)c([N+](=O)[O-])c1 | 8.71 µM | 22.7 µM | 5.17 µM | 16.3 µM | 0.174 µM | 0.677 µM | 1.17 µM | 2.66 µM | 3.06 µM | 24.2 µM | 3.18 µM | 10.8 µM | 3.98 µM | 15.7 µM | 2.59 µM | 8.16 µM | 2.96 µM | 8.96 µM | 6.32 µM | 19.3 µM |
| CC1=C([Se]CC(OC(=O)[C@@H](CO)NC(=O)OC(C)(C)C)C(=O)NCCCCCC(=O)OCc2ccccc2)C(=O)c2ccccc2C1=O (stereo not given in full) | 2.02 µM | 5.93 µM | 1.98 µM | 3.48 µM | 2.03 µM | 4.82 µM | 1.87 µM | 3.32 µM | 1.99 µM | 4.64 µM | 0.462 µM | 1.61 µM | 1.23 µM | 2.58 µM | 2.18 µM | 5.83 µM | 2.26 µM | 4.08 µM | 1.68 µM | 3.07 µM |
| COc1cccc(Nc2nccc(-c3cnn4ncccc34)n2)c1 | 0.0483 µM | 0.126 µM | 0.0671 µM | 0.238 µM | 0.0553 µM | 0.163 µM | 0.0392 µM | 0.157 µM | 0.0381 µM | 0.117 µM | 0.0754 µM | > 25 µM | 0.0652 µM | 1.32 µM | 0.0621 µM | 0.166 µM | 0.0572 µM | 0.138 µM | 0.0486 µM | 0.139 µM |
| CCCCCC[C@H](C)NC(=O)c1ccc(Nc2nc3ccccc3c3occc23)cc1 | 2.74 µM | 7.54 µM | 1.26 µM | 4.16 µM | 4.47 µM | 48.9 µM | 3 µM | 50.4 µM | 4.68 µM | 67.6 µM | 3.81 µM | > 100 µM | 5.36 µM | > 100 µM | 4.03 µM | > 100 µM | 2.64 µM | 6.83 µM | 16 µM | 35.5 µM |
| C[CH2][Sn]([CH2]C)([O]C(=O)c1ccc(OC)c(OC)c1OC)[O]C(=O)c1ccc(OC)c(OC)c1OC | 16.3 µM | 44 µM | > 100 µM | > 100 µM | > 63.5 µM | > 100 µM | 21.8 µM | 49.6 µM | 23.2 µM | 88.8 µM | > 100 µM | > 100 µM | > 100 µM | > 100 µM | 22.7 µM | 72.2 µM | 28.7 µM | 81.7 µM | 42.6 µM | > 100 µM |
| CN(C)CCOC(=O)Nc1nc2ccc(Sc3ccccc3)cc2[nH]1 | 2.62 µM | 10.6 µM | 3.31 µM | 14.1 µM | 3.24 µM | 8.59 µM | 1.33 µM | 6.73 µM | 4 µM | 28.8 µM | 3.69 µM | 13.7 µM | 3 µM | 22.7 µM | 3.72 µM | 17.9 µM | 5.55 µM | 22.2 µM | 3.74 µM | 16.7 µM |
